The NIST ThermoML archive (doi:10.1021/acs.jced.9b00846)

Details: Liquid, Vibrating tube method

CC(C)C(C)C(C)C [2,3,4-trimethylpentane]
Details | mass density [kg/m3]
283.15 K, 130 kPa | 728.3
283.15 K, 4973 kPa | 732.2
283.15 K, 9993 kPa | 736
283.15 K, 14965 kPa | 739.6
283.15 K, 20000 kPa | 743
283.15 K, 25003 kPa | 746.3
283.15 K, 29990 kPa | 749.5
283.15 K, 35009 kPa | 752.5
283.15 K, 39961 kPa | 755.4
283.15 K, 45014 kPa | 758.3
283.15 K, 49986 kPa | 761
283.15 K, 54944 kPa | 763.6
283.15 K, 60030 kPa | 766.3
283.15 K, 65014 kPa | 768.8
288.15 K, 102 kPa | 724.3
288.15 K, 5015 kPa | 728.4
288.15 K, 9991 kPa | 732.3
288.15 K, 14975 kPa | 736
288.15 K, 20038 kPa | 739.6
288.15 K, 25021 kPa | 743
288.15 K, 29929 kPa | 746.1
288.15 K, 35037 kPa | 749.3
288.15 K, 40039 kPa | 752.3
288.15 K, 44998 kPa | 755.2
288.15 K, 49927 kPa | 757.9
288.15 K, 54967 kPa | 760.6
288.15 K, 59925 kPa | 763.2
288.15 K, 65032 kPa | 765.9
293.15 K, 111 kPa | 720.4
293.15 K, 5021 kPa | 724.6
293.15 K, 9998 kPa | 728.6
293.15 K, 14997 kPa | 732.4
293.15 K, 19997 kPa | 736.1
293.15 K, 25022 kPa | 739.6
293.15 K, 29930 kPa | 742.8
293.15 K, 34968 kPa | 746
293.15 K, 39974 kPa | 749.1
293.15 K, 45009 kPa | 752
293.15 K, 49965 kPa | 754.9
293.15 K, 54987 kPa | 757.6
293.15 K, 59945 kPa | 760.3
293.15 K, 65000 kPa | 762.9
298.15 K, 105 kPa | 716.2
298.15 K, 5072 kPa | 720.6
298.15 K, 9964 kPa | 724.7
298.15 K, 15013 kPa | 728.7
298.15 K, 20054 kPa | 732.5
298.15 K, 25008 kPa | 736
298.15 K, 29968 kPa | 739.4
298.15 K, 34937 kPa | 742.6
298.15 K, 40018 kPa | 745.8
298.15 K, 45064 kPa | 748.8
298.15 K, 50010 kPa | 751.7
298.15 K, 55015 kPa | 754.5
298.15 K, 59955 kPa | 757.2
298.15 K, 65024 kPa | 759.9
303.15 K, 100 kPa | 712
303.15 K, 4934 kPa | 716.5
303.15 K, 10038 kPa | 720.9
303.15 K, 14973 kPa | 724.9
303.15 K, 19957 kPa | 728.7
303.15 K, 25002 kPa | 732.4
303.15 K, 29980 kPa | 735.9
303.15 K, 34972 kPa | 739.3
303.15 K, 39972 kPa | 742.5
303.15 K, 44990 kPa | 745.6
303.15 K, 49984 kPa | 748.5
303.15 K, 54948 kPa | 751.4
303.15 K, 59951 kPa | 754.2
303.15 K, 65040 kPa | 756.9
308.15 K, 92 kPa | 707.8
308.15 K, 5051 kPa | 712.5
308.15 K, 9961 kPa | 716.8
308.15 K, 14959 kPa | 721
308.15 K, 20027 kPa | 725
308.15 K, 25025 kPa | 728.8
308.15 K, 29996 kPa | 732.4
308.15 K, 34959 kPa | 735.7
308.15 K, 40017 kPa | 739.1
308.15 K, 45023 kPa | 742.2
308.15 K, 49965 kPa | 745.2
308.15 K, 54977 kPa | 748.2
308.15 K, 60020 kPa | 751
308.15 K, 64995 kPa | 753.8
313.15 K, 99 kPa | 703.6
313.15 K, 4997 kPa | 708.5
313.15 K, 9998 kPa | 713.1
313.15 K, 15010 kPa | 717.4
313.15 K, 19994 kPa | 721.4
313.15 K, 25007 kPa | 725.3
313.15 K, 29995 kPa | 729
313.15 K, 35008 kPa | 732.4
313.15 K, 39993 kPa | 735.8
313.15 K, 45005 kPa | 739
313.15 K, 49990 kPa | 742.1
313.15 K, 55003 kPa | 745.1
313.15 K, 59996 kPa | 748
313.15 K, 64993 kPa | 750.8
318.15 K, 104 kPa | 699.5
318.15 K, 4961 kPa | 704.4
318.15 K, 10003 kPa | 709.2
318.15 K, 15026 kPa | 713.7
318.15 K, 19937 kPa | 717.8
318.15 K, 25012 kPa | 721.8
318.15 K, 29990 kPa | 725.5
318.15 K, 34991 kPa | 729.1
318.15 K, 39976 kPa | 732.5
318.15 K, 45028 kPa | 735.8
318.15 K, 49973 kPa | 739
318.15 K, 54916 kPa | 742
318.15 K, 59988 kPa | 744.9
318.15 K, 65015 kPa | 747.8
323.15 K, 111 kPa | 695.4
323.15 K, 5025 kPa | 700.6
323.15 K, 10013 kPa | 705.5
323.15 K, 14973 kPa | 710
323.15 K, 20028 kPa | 714.4
323.15 K, 25014 kPa | 718.4
323.15 K, 29976 kPa | 722.2
